Columns and labels:
TIP60-KAT5 [1] = biological target: T1, TIP60-KAT5 (Homo sapiens, UniProt Q92993); test: Revised Acetyltransferase Biochemical Assay, KAT5; details: 10 nM KAT5, 1 μM AcCoA, 100 nM histone H4, 90 min
T1 construct: encoding amino acid residues 2 to 461 (Uniprot Q92993-2) of human KAT5 isoform; made in house; host or cells: E. coli BL21 DE3

QKF-KAT6B = biological target: T2, QKF-KAT6B (Homo sapiens, UniProt Q8WYB5); test: Revised Acetyltransferase Biochemical Assay, KAT6B; details: 8 nM KAT6B, 1 μM AcCoA, 100 nM histone H3.1, 90 min
T2 construct: purchased SignalChem K315-381BG
T2 sequence (Q8WYB5 whole entry): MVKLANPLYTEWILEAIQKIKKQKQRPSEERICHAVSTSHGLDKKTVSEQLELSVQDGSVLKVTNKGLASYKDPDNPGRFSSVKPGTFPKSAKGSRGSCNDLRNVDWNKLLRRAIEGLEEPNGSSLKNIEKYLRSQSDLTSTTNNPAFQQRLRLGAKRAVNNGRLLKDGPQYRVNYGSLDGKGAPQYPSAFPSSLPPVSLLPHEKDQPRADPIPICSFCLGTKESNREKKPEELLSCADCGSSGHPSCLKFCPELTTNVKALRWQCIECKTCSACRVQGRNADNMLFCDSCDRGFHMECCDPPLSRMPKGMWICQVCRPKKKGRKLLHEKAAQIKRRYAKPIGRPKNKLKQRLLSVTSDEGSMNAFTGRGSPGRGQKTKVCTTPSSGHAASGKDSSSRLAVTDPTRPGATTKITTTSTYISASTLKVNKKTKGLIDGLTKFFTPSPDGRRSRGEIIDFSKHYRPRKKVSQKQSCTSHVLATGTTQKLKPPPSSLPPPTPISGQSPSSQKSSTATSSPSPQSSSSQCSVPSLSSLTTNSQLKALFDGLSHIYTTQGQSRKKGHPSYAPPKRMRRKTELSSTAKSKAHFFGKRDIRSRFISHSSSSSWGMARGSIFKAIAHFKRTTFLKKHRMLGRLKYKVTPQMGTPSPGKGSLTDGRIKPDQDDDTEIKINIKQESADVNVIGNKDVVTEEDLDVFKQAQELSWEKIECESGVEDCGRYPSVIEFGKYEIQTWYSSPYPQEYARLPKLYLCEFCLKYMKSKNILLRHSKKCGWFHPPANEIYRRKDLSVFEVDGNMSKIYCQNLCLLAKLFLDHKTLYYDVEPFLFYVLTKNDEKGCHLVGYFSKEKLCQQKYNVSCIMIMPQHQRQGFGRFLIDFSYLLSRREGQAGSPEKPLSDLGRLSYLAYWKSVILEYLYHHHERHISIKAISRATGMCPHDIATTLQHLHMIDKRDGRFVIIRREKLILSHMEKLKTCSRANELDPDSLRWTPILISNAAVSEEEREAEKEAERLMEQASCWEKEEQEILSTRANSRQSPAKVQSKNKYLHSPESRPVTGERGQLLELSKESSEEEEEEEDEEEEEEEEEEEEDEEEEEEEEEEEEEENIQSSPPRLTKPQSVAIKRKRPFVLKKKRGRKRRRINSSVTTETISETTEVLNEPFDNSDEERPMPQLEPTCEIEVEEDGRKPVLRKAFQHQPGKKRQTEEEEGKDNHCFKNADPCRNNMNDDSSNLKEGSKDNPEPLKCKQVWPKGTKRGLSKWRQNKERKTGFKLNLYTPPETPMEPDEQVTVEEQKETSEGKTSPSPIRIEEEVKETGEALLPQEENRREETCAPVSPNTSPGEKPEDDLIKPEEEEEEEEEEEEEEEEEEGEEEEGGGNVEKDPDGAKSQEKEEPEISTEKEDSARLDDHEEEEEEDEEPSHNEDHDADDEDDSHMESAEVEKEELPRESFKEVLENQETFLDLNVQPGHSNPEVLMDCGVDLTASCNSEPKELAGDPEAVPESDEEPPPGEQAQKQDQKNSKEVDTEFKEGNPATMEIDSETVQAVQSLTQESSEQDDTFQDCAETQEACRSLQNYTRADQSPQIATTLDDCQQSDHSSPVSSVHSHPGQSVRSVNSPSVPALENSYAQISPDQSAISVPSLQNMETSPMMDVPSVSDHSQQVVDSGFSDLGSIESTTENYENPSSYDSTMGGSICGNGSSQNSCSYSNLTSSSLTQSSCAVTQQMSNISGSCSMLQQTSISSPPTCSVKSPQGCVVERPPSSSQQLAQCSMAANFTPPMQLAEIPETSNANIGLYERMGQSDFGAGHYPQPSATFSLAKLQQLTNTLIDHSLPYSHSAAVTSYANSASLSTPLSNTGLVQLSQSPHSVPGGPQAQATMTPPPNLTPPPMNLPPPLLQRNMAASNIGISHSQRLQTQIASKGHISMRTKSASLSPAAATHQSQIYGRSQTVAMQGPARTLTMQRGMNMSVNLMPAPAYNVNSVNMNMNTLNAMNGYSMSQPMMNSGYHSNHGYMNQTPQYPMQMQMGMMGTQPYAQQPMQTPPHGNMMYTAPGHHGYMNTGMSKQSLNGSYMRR
Text: KAT6B was obtained from SignalChem, catalog ID: K315-381BG

MOF-KAT8 [2] = biological target: T3, MOF-KAT8 (Homo sapiens, UniProt Q9H7Z6); test: Revised Acetyltransferase Biochemical Assay, KAT8
T3 sequence (Q9H7Z6 177-447): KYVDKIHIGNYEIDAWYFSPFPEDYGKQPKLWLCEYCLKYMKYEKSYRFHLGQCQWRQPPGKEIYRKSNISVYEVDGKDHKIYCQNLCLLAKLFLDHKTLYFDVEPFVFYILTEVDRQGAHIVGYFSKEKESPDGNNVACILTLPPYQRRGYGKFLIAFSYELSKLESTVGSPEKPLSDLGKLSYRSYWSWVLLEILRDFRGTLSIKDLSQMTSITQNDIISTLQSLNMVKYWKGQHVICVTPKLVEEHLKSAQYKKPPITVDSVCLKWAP

MOZ-KAT6A [3] = biological target: T4, MOZ-KAT6A (Homo sapiens, UniProt Q92794, A567V); test: Acetyltransferase biochemical assay (AlphaScreen), KAT6A; details: Table 2 (MOZ-KAT6A); 10 μM Acetyl coenzyme A, histone H3.1, 5 nM enzyme
T4 construct: encoding amino acid residues 507 to 778 (Uniprot Q92794-1) of human KAT6A; made in house; host or cells: E. coli BL21 DE3
T4 sequence (Q92794 507-778 A567V limits assumed): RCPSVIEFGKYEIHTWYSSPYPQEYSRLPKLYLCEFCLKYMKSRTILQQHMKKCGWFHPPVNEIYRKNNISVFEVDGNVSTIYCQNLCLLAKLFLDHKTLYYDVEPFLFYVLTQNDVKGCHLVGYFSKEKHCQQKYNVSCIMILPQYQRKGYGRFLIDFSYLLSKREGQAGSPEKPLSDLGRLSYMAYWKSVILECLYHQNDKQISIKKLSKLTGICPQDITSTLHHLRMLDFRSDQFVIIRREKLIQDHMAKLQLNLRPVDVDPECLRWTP

MOZ-KAT6A [4] = biological target: T4, MOZ-KAT6A; test: Revised Acetyltransferase Biochemical Assay, KAT6A; details: Table 8 (MOZ-KAT6A), 1 μM Acetyl coenzyme A
[5] = test system: histone H3K23 acetylation (KATE mediated) in U2OS cells; test: Histone H3 Lysine 23 Acetylation Biomarker Assay (U2OS); assay type: cell-based; details: 96 well, 24 hours incubation
Method: Compounds may be tested for their ability to inhibit acetylation of the histone H3K23 marker, which is KATE mediated, in the following assay:
The cell line U2OS was seeded at a density of 9,000 cells per well in 96 well optical quality tissue culture plates in RPMI medium and 10% foetal bovine serum, and allowed to adhere for 24 hours under standard culture conditions (37 degree Celsius, 5% CO2). At the end of this period the medium was aspirated. Compound dilutions prepared in DMSO were added to medium, with negative control wells reserved for treatment with DMSO only and 100% inhibition positive controls receiving a potent inhibitor compound (e.g. cas 2055397-28-7, benzoic acid, 3-fluoro-5-(2-pyridinyl)-, 2-[(2-fluorophenyl)sulfonyl]hydrazide) (Baell, J., Nguyen, H. N., Leaver, D. J., Cleary, B. L., Lagiakos, H. R., Sheikh, B. N., Thomas. T. J., Aryl sulfonohydrazides, WO2016198507A1, 2016) at 10 μM concentration and 200 μL transferred to the cells. After incubation for 24 hours, the cells were fixed with 3.7% formaldehyde in PBS for 20 minutes at room temperature, washed (5×5 minutes) with phosphate buffer saline containing 0.1% Tween 20 and blocked with Odyssey blocking buffer (LI-COR, Lincoln, Nebr.) containing 0.1% TritonX100. Anti-H3K23ac specific antibody (Abcam ab177275) in Odyssey blocking buffer containing 0.1% Tween 20 was added and incubated for 16 hours at 4 degree Celsius. After washing (as above), a secondary antibody labelled with Alexa647 dye (LifeTechnologies) and Hoechst 33342 (1 μg/mL, SigmaAldrich) were added for 1 hour incubation. Plates were washed as previously and read on a PerkinElmer Phenix high content imaging platform. Using a Columbus image analysis pipeline, individual nuclei were located by Hoechst 33342 stain and the acetylation level was calculated from the Alexa647-related intensity in the same area. The resulting mean intensity per cell was directly converted to percent inhibition relative to controls on the same plate and the data fitted against a four-parameter logistic model to determine the 50% inhibitory concentration (IC50).

HBO-KAT7 [6] = biological target: T5, HBO-KAT7 (Homo sapiens, UniProt O95251); test: Revised Acetyltransferase Biochemical Assay, KAT7; details: Table 9 (HBO-KAT7), 1 μM Acetyl coenzyme A
T5 construct: encoding amino acid residues 325 to 611 (Uniprot 095251-1) of human KAT7; made in house; host or cells: E. coli BL21 DE3 RIL
T5 sequence (O95251 with tags, fused parts or gaps): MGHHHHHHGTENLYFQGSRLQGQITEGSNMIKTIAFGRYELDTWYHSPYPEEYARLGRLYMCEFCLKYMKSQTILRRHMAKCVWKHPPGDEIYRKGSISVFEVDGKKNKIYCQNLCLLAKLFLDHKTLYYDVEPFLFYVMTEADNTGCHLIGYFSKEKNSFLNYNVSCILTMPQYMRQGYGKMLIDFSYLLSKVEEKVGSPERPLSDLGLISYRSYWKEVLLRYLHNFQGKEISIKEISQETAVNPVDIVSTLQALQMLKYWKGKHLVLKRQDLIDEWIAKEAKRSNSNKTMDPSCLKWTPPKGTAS

TIP60-KAT5 [7] = biological target: T1, TIP60-KAT5; test: Acetyltransferase biochemical assay (AlphaScreen), KAT5; details: Table 1 (TIP60-KAT5); 0.4 μM Acetyl coenzyme A, histone H4, 10 nM enzyme
HBO-KAT7 [8] = biological target: T5, HBO-KAT7; test: Acetyltransferase biochemical assay (AlphaScreen), KAT7; details: Table 3 (HBO-KAT7); 0.4 μM Acetyl coenzyme A, histone H3.1, 40 nM enzyme
MOF-KAT8 [9] = biological target: T3, MOF-KAT8; test: Acetyltransferase biochemical assay (AlphaScreen), KAT8; details: Table 4 (MOF-KAT8); 0.4 μM Acetyl coenzyme A, histone H4, 20 nM enzyme
[10] = test system: histone H2A.Z Lysine 7 acetylation (TIP60 mediated) in U2OS cells; test: H2A.Z Lysine 7 Acetylation Biomarker Assay (384-well, U2OS); assay type: cell-based; details: Homo sapiens, serum free medium, 24 hours incubation
Procedure, shortened: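 U2OS cells (3,000/well) were treated with compound for 24 h after a serum-free wash, then fixed. They were stained with anti-H2A.ZK7ac, an AlexaFluor 488 secondary and Hoechst. High-content imaging gave mean nuclear intensity per cell, converted to percent inhibition against on-plate controls, and IC50 came from a four-parameter logistic fit.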

[11] = test system: histone H3 Lysine 14 acetylation (HBO1 mediated) in U2OS cells; test: Histone H3 Lysine 14 Acetylation Biomarker Assay (384-well, U2OS); assay type: cell-based; details: Homo sapiens, serum free medium, 24 hours incubation
Method: Compounds may be tested for their ability to inhibit acetylation of the histone H3 Lysine 14 (which is HBO1 mediated) marker in the following assay:
The cell line U2OS was seeded at a density of 3,000 cells per well in 384-well optical quality tissue culture plates in RPMI medium supplemented with 10% foetal bovine serum and 10 mM Hepes. The cells were allowed to adhere for 24 hours under standard culture conditions (37 degree Celsius, 5% CO2). At the end of this period the cells were washed with serum free medium. Compound dilutions prepared in DMSO were added to the serum free medium, with negative control wells reserved for treatment with DMSO only and 100% inhibition positive controls receiving a potent inhibitor compound (e.g. (Z)-4-fluoro-N-((3-hydroxyphenyl)sulfonyl)-5-methyl-[1,1′-biphenyl]-3-carbohydrazonic acid) at 10 μM concentration. After incubation for 24 hours, the cells were fixed with 4% formaldehyde in PBS for 15 minutes at room temperature, washed with phosphate buffer saline and blocked with blocking buffer containing 0.2% TritonX100 and 2% BSA. Anti-H3K14ac specific antibody (Cell Signalling Technologies) in blocking buffer was added and incubated overnight at 4 degree Celsius. After washing, a secondary antibody labelled with AlexaFluor 488 dye (ThermoFisher) and Hoechst 33342 (1 μg/mL, Life Technologies) were added for 2 hours incubation at room temperature. Plates were washed and read on a
PerkinElmer Opera HCS high content imaging platform. Using a Columbus image analysis pipeline, individual nuclei were located by Hoechst 33342 stain and the acetylation level was calculated from the AlexaFluor 488-related intensity in the same area. The resulting mean intensity per cell was converted to percent inhibition relative to controls on the same plate and the data fitted against a four-parameter logistic model to determine the 50% inhibitory concentration (IC50).

T1 sequence (Q92993 2-461 isoform Q92993-2): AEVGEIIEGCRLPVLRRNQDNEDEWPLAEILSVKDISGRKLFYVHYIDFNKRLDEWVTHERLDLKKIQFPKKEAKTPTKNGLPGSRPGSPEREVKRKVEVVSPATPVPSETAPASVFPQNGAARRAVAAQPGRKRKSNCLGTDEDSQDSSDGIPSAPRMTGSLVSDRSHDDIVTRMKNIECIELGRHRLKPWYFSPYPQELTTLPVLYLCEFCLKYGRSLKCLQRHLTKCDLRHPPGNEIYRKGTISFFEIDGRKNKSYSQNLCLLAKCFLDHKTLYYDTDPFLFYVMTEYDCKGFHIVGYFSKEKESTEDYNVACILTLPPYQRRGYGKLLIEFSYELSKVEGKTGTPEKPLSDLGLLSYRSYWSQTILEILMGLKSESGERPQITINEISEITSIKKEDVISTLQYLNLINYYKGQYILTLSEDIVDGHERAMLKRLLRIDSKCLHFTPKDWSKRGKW

| SMILES | IC50 (TIP60-KAT5 [1]) [nM] | IC50 (QKF-KAT6B) [nM] | IC50 (MOF-KAT8 [2]; read-out: IC50 (MOF-KAT8), Revised acetyltransferase biochemical assay, 20 nM KAT8, 1 μM AcCoA, 100 nM histone H4, 90 min) [nM] | IC50 (MOZ-KAT6A [3]) [nM] | IC50 (MOZ-KAT6A [4]) [nM] | IC50 [5] [nM] | IC50 (HBO-KAT7 [6]) [nM] | IC50 (TIP60-KAT5 [7]) [nM] | IC50 (HBO-KAT7 [8]) [nM] | IC50 (MOF-KAT8 [2]) [nM] | IC50 ([5]; Homo sapiens) [nM] | IC50 (MOF-KAT8 [9]) [nM] | IC50 [10] [nM] | IC50 [11] [nM] |
| --- | --- | --- | --- | --- | --- | --- | --- | --- | --- | --- | --- | --- | --- | --- |
| O=C(NCC(c1ccccc1)c1ncco1)C1=Nc2ccc(F)cc2S(=O)(=O)N1 (single isomer, unassigned) [Example 144] | 1060 | 459 | 46700 | 120 | 21 | 104 | 1390 | 1650 |  |  |  |  |  |  |
| COCc1ccccc1CCNC(=O)C1=Nc2ccc(I)cc2S(=O)(=O)N1 [Example 14, 7-Iodo-N-(2-(methoxymethyl)phenethyl)-2H-benzo[e][1,2,4]thiadiazine-3-carboxamide 1,1-dioxide] | 156 | 58 |  |  | 10 |  | 83 | 2360 | 1780 | 37800 | 1060 |  |  |  |
| Cn1cc(-c2ccc3c(c2)S(=O)(=O)NC(C(=O)NCC(c2ccccc2)c2ncco2)=N3)cn1 (centres unmarked) [Example 25, 7-(1-Methyl-1H-pyrazol-4-yl)-N-(2-(oxazol-2-yl)-2-phenylethyl)-2H-benzo[e][1,2,4]thiadiazine-3-carboxamide 1,1-dioxide] | 5910 | 610 |  | 51.2 | 64 |  | 12000 | 6890 | 1930 | > 125000 | 3820 | 78200 |  |  |
| O=C(NCC(c1ccccc1)c1ncc[nH]1)C1=Nc2ccccc2S(=O)(=O)N1 (centres unmarked) [Example 113] | > 125000 | > 125000 |  |  | 99000 |  | 6410 | > 125000 |  | > 125000 | > 10000 |  |  |  |
| COc1cc(C)cc(C(CNC(=O)C2=Nc3ccc(Cl)cc3S(=O)(=O)N2)c2ncco2)c1 (centres unmarked) [Example 159, 7-chloro-N-(2-(3-methoxy-5-methylphenyl)-2-(oxazol-2-yl)ethyl)-2H-benzo[e][1,2,4]thiadiazine-3-carboxamide 1,1-dioxide] | 3200 | 4050 |  |  | 371 |  | 295 |  |  | 16300 | 5090 |  |  |  |
| O=C(NCC(F)(c1ccccc1)c1ncco1)C1=Nc2ccc(Cl)cc2S(=O)(=O)N1 (centres unmarked) [Example 175] | 311 |  |  |  | 13 |  | 478 |  | 162 | 30200 | 154 | 29300 | 11900 | 1840 |
| O=C(NCC(F)(c1ccccc1)c1ncco1)C1=Nc2ccc(I)cc2S(=O)(=O)N1 (centres unmarked) [Example 177] | 23 |  |  |  | 4 |  | 124 |  | 64 | 8210 | 195 | 6250 | 1180 | 1030 |
| O=C(NCC(c1ccccc1)c1n[nH]c(=O)o1)C1=Nc2ccc(I)cc2S(=O)(=O)N1 (centres unmarked) [Example 186] | 734 |  |  |  | 24 |  | 1960 |  |  |  | > 10000 | 71500 | > 40000 | > 40000 |
| Cn1nc(-c2ccccc2CCNC(=O)C2=Nc3ccc(Cl)cc3S(=O)(=O)N2)oc1=O [Example 193] | 4170 |  |  |  | 493 |  | 1940 |  |  |  | 9080 |  | > 40000 | 31200 |
| O=C(NCC1(c2ccccn2)CCCCC1)C1=Nc2ccc(Cl)cc2S(=O)(=O)N1 [Example 197] | 23600 | 780 |  |  | 290 |  | 7530 |  |  |  | 3040 |  |  |  |
| O=C(NCC1(c2ccccn2)CCCC1)C1=Nc2ccc(Cl)cc2S(=O)(=O)N1 [Example 198] | 42300 | 1380 |  |  | 351 |  | 8370 |  |  |  | 5200 |  |  |  |
| O=C(NCC(CO)C1CCCCC1)C1=Nc2ccc(Cl)cc2S(=O)(=O)N1 (centres unmarked) [Example 199] | 15600 | 6170 |  |  | 838 |  | 6570 |  |  |  | 10000 |  |  |  |
| O=C(NCCC1CCCCC1)C1=Nc2ccc(Cl)cc2S(=O)(=O)N1 [Example 202] | > 125000 | > 125000 |  |  | 1040 |  | > 125000 |  |  |  | > 10000 |  |  |  |
| O=C(NCC(c1cccc(O)c1)c1ncco1)C1=Nc2ccc(Cl)cc2S(=O)(=O)N1 (centres unmarked) [Example 216, 7-Chloro-N-(2-(3-hydroxyphenyl)-2-(oxazol-2-yl)ethyl)-2H-benzo[e][1,2,4]thiadiazine-3-carboxamide 1,1-dioxide] | 506 |  |  |  | 28 |  | 152 |  | 63 | 58600 |  | 64300 | 15900 | 14100 |
| Cc1cc(O)cc(C(CNC(=O)C2=Nc3ccc(I)cc3S(=O)(=O)N2)c2ncco2)c1 (centres unmarked) [Example 222, N-(2-(3-Hydroxy-5-methylphenyl)-2-(oxazol-2-yl)ethyl)-7-iodo-2H-benzo[e][1,2,4]thiadiazine-3-carboxamide 1,1-dioxide] | 149 |  |  |  | 131 |  | 23 |  |  |  | 7150 |  | 1280 | 437 |
